This passage reports inhibition, IC50 and melting point results from patent US6589970B2, “6-(aryl-amido or aryl-amidomethyl)-naphthalen-2-yloxy-acidic derivatives as inhibitors of plasminogen activator inhibitor type-1 (PAI-1)” (Wyeth, priority 2001, dated 2003).

Where a name gives a salt, the structure may show the parent alone.

For series [1], the target named is T1, recombinant human plasminogen activator inhibitor-1 (PAI-1) (Homo sapiens, UniProt P05121).
T1 construct: purchased Molecular Innovations, Royal Oak, Mich
T1 sequence (P05121 24-402): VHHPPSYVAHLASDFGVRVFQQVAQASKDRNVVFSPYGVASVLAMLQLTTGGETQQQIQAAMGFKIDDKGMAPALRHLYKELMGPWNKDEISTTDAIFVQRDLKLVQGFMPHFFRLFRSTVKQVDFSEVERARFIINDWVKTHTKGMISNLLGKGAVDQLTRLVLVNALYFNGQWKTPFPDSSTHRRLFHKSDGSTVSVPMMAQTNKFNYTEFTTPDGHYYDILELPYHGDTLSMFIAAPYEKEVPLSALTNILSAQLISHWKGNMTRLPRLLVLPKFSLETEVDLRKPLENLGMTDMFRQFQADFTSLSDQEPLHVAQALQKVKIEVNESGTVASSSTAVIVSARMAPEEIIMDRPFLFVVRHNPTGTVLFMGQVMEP
Put plainly: Primary Screen for the PAI-1 Inhibition. The class given is biochemical. The settings on record: for inhibition at 25 µM: 25 μM test compound, read-out: % Inhib. 25 μM; for inhibition at 100 µM: 100 μM test compound, read-out: % Inhib. 100 μM. In a few lines:
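Compound (1-100 μM final, ≤0.2% DMSO) was preincubated for 1 h at room temperature with 140 nM recombinant human PAI-1 at pH 6.6. tPA was then added at 70 nM for 30 min. Residual tPA activity was measured with Spectrozyme-tPA (A405 at 0 and 60 min) and taken as relative PAI-1 inhibition.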

For series [2], the target named is T1, recombinant human plasminogen activator inhibitor-1 (PAI-1). Put plainly: Modification of the Primary Screen for the PAI-1 Inhibition (IC50). The series is classed as biochemical. How it is done: Test compounds are dissolved in DMSO at a final concentration of 10 mM, then diluted 100× in physiologic buffer. The inhibitory assay is initiated by the addition of the test compound (1-100 μM final concentration, maximum DMSO concentration of 0.2%) in a pH 6.6 buffer containing 140 nM recombinant human plasminogen activator inhibitor-1 (PAI-1; Molecular Innovations, Royal Oak, Mich.). Following a 1 hour incubation at room temperature, 70 nM of recombinant human tissue plasminogen activator (tPA) is added, and the combination of the test compound, PAI-1 and tPA is incubated for an additional 30 minutes. Following the second incubation, Spectrozyme-tPA (American Diagnostica, Greenwich, Conn.), a chromogenic substrate for tPA, is added and absorbance read at 405 nm at 0 and 60 minutes. Relative PAI-1 inhibition is equal to the residual tPA activity in the presence of the test compound and PAI-1. Control treatments include the complete inhibition of tPA by PAI-1 at the molar ratio employed (2:1), and the absence of any effect of the test compound on tPA alone.

Another series concerns the target human PAI-1 (Homo sapiens, UniProt P05121). Put plainly: Assay for Determining IC50 of Inhibition of PAI-1 (Antibody Assay). The series is classed as biochemical. The settings on record: active PAI-1 bound to tPA-coated plate. How it is done:
This assay is based upon the non-SDS dissociable interaction between tPA and active PAI-1. Assay plates are initially coated with human tPA (10 μg/ml). The test compounds are dissolved in DMSO at 10 mM, then diluted with physiologic buffer (pH 7.5) to a final concentration of 1-50 μM. The test compounds are incubated with human PAI-1 (50 ng/ml) for 15 minutes at room temperature. The tPA-coated plate is washed with a solution of 0.05% Tween 20 and 0.1% BSA, then the plate is blocked with a solution of 3% BSA. An aliquot of the test compound/PAI-1 solution is then added to the tPA-coated plate, incubated at room temperature for 1 hour, and washed. Active PAI-1 bound to the plate is assessed by adding an aliquot of a 1:1000 dilution of the 33B8 monoclonal antibody against human PAI-1, and incubating the plate at room temperature for 1 hour (Molecular Innovations, Royal Oak, Mich. The plate is again washed, and a solution of goat anti-mouse IgG-alkaline phosphatase conjugate is added at a 1:50,000 dilution in goat serum. The plate is incubated 30 minutes at room temperature, washed, and a solution of alkaline phosphatase substrate is added. The plate is incubated 45 minutes at room temperature, and color development is determined at OD405nm. The quantitation of active PAI-1 bound to tPA at varying concentrations of the test compound is used to determine the IC50. Results are analyzed using a logarithmic best-fit equation. The assay sensitivity is 5 ng/ml of human PAI-1 as determined from a standard curve ranging from 0-100 ng/ml.

Chain of human PAI-1 (P05121 24-402): as above

In the case of `CCCCc1oc2ccccc2c1C(=O)Nc1ccc2cc(OCc3nn[nH]n3)ccc2c1` [Example 3, 2-Butyl-benzofuran-3-carboxylic acid [6-(2H-tetrazol-5-ylmethoxy)-naphthalen-2-yl]-amide], the melting point (usually the temperature, or range, at which the solid turns liquid) lay within 194 to 198 °C. Besides, in series [1], the inhibition at 25 µM is 38% and the inhibition at 100 µM came out at 75%. The IC50 (as a rule, the concentration needed to halve the response being measured) in series [2] is 3.2 µM.

At human PAI-1, `CCCCc1oc2ccccc2c1C(=O)Nc1ccc2c(Br)c(OC(Cc3ccccc3)C(=O)O)ccc2c1` (stereo not shown) [Example 7, 2-{1-Bromo-6-[(2-butyl-benzofuran-3-carbonyl)-amino]-naphthalen-2-yloxy}-3-phenyl-propionic acid] showed an IC50 of 16.6 µM. In series [1], the inhibition at 25 µM amounted to 64% and the inhibition at 100 µM amounted to 83%. Also, the IC50 in series [2] turned out to be 7.8 µM.

Turning to `CCCCc1oc2ccccc2c1C(=O)NCc1ccc2cc(OCc3nnn[nH]3)ccc2c1` [Example 8, 2-Butyl-benzofuran-3-carboxylic acid [6-(1H-tetrazol-5-ylmethoxy)-naphthalen-2-ylmethyl]-amide sodium salt], in series [1], the inhibition at 25 µM came out at 13% and the inhibition at 100 µM was 71%. Also, the IC50 in series [2] was found to be 22.9 µM.

With `Cc1oc(-c2ccc(Cl)cc2)cc1C(=O)NCc1ccc2cc(OCC(=O)O)ccc2c1` [Example 10, [6-({[5-(4-Chloro-phenyl)-2-methyl-furan-3-carbonyl]-amino}-methyl)-naphthalen-2-yloxy]-acetic acid], in series [1], the inhibition at 25 µM is 7% and the inhibition at 100 µM turned out to be 53%. Further, the IC50 in series [2] stood at 25.2 µM.

`CCCCc1oc2ccccc2c1C(=O)NCc1ccc2c(Br)c(OCc3nnn[nH]3)ccc2c1.[Na]` [Example 17, 2-Butyl-benzofuran-3-carboxylic acid [5-bromo-6-(1H-tetrazol-5-ylmethoxy)-naphthalen-2-ylmethyl]-amide sodium salt]: the melting point was in the range of 214 to 215 °C. Also, the half-maximal inhibitory concentration (IC50) against human PAI-1 was found to be 16.1 µM. Moreover, the inhibition at 100 µM in series [1] was found to be 80%. In series [2], the IC50 was 1.4 µM.

On to `CCCCc1oc2ccccc2c1C(=O)NCc1ccc2c(-c3ccccc3)c(OCc3nnn[nH]3)ccc2c1` [Example 24, 2-Butyl-benzofuran-3-carboxylic acid [5-phenyl-6-(1H-tetrazol-5-ylmethoxy)-naphthalen-2-ylmethyl]-amide], for which the melting point is 192 to 196 °C. On human PAI-1, this compound yielded an IC50 of 16.8 µM. Moreover, in series [1], the inhibition at 25 µM worked out at 25% and the inhibition at 100 µM amounted to 72%. Further, the IC50 in series [2] was determined as 9.94 µM.

As for `CCCCc1oc2ccccc2c1C(=O)NCc1ccc2c(-c3ccc(OC)cc3)c(OCc3nnn[nH]3)ccc2c1` [Example 25, 2-Butyl-benzofuran-3-carboxylic [5-(4-methoxy phenyl)-6-(1H-tetrazol-5-ylmethoxy)-naphthalen-2-ylmethyl]-amide, sodium salt], in series [1], the inhibition at 25 µM was found to be 3% and the inhibition at 100 µM amounted to 94%. For the same compound, in series [2], the IC50 worked out at 4.6 µM.

Compound `CCCCc1oc2ccccc2c1C(=O)NCc1ccc2c(-c3ccc(Cl)cc3)c(OCc3nnn[nH]3)ccc2c1` [Example 26, 2-Butyl-benzofuran-3-carboxylic acid [5-(4-chloro-phenyl)-6-(1-tetrazol-5-ylmethoxy)-naphthalen-2-ylmethyl]-amide] had a melting point of 208 to 211 °C. In addition, in series [1], the inhibition at 25 µM is 20% and the inhibition at 100 µM was found to be 98%. Also, the IC50 in series [2] came to 4.3 µM.

`CCCCc1oc2ccccc2c1C(=O)NCc1ccc2c(-c3ccccc3)c(OCC(=O)O)ccc2c1` [Example 28, (6-{[(2-Butyl-benzofuran-3-carbonyl)-amino]-methyl}-1-phenyl-naphthanen-2-yloxy)-acetic acid] gave a melting point of 180 to 183 °C. In series [1], the inhibition at 25 µM was 22% and the inhibition at 100 µM was 100%. For the same compound, the IC50 in series [2] is 20.2 µM.

Consider `CCCCc1oc2ccccc2c1C(=O)NCc1ccc2c(-c3ccc(Cl)cc3)c(OC(Cc3ccccc3)C(=O)O)ccc2c1` (stereo not shown) [Example 29, 2-[6-{[(2-Butyl-benzofuran-3-carbonyl)-amino]-methyl}-1-(4-chloro-phenyl)-naphthalen-2-yloxy]-3-phenyl-propionic acid], for which, in series [1], the inhibition at 25 µM is 23% and the inhibition at 100 µM was found to be 100%. Moreover, the IC50 in series [2] is 8.5 µM.

`CCCCc1oc2ccccc2c1C(=O)N(C)Cc1ccc2c(Br)c(OCc3nnn[nH]3)ccc2c1` [Example 31, 2-Butyl-benzofuran-3-carboxylic acid [5-bromo-6-(1H-tetrazol-5-ylmethoxy)-naphthalen-2-ylmethyl]-methyl-amide] yielded a melting point of 190 to 194 °C. The compound further yielded an IC50 at human PAI-1 of 8.47 µM. For the same compound, in series [1], the inhibition at 25 µM amounted to 62% and the inhibition at 100 µM was found to be 95%. For the same compound, the IC50 in series [2] was 15.6 µM.

`CCCCc1oc2ccccc2c1C(=O)N(Cc1ccccc1)Cc1ccc2c(Br)c(OCc3nnn[nH]3)ccc2c1` [Example 48, 2-Butyl-benzofuran-3-carboxylic acid benzyl-[5-bromo-6-(1H-tetrazol-5-ylmethoxy)-naphthalen-2-ylmethyl]-amide]: the IC50 against human PAI-1 is 17.5 µM; in series [2], 20.9 µM. Moreover, the inhibition at 25 µM in series [1] was 48%. For the same compound, in series [1], the inhibition at 100 µM is 85%.

For the compound `CCCCc1oc2ccccc2c1C(=O)N(CCCC)Cc1ccc2c(Br)c(OCc3nnn[nH]3)ccc2c1` [Example 51, 2-Butyl-benzofuran-3-carboxylic acid [5-bromo-6-(1H-tetrazol-5-ylmethoxy)-naphthalen-2-ylmethyl]-butyl-amide], inhibition against human PAI-1 was half-maximal at 18.7 µM (IC50). In addition, in series [1], the inhibition at 25 µM worked out at 69% and the inhibition at 100 µM came out at 91%. Also, in series [2], the IC50 was 6.9 µM.

With `CCCc1c(C(=O)NCc2ccc3c(Br)c(OC(Cc4ccccc4)C(=O)O)ccc3c2)cnn1-c1ccccc1` (stereo not shown) [Example 54, 2-(1-Bromo-6-{[(1-phenyl-5-propyl-1H-pyrazole-4-carbonyl)-amino]-methyl}-naphthalen-2-yloxy)-3-phenyl-propionic acid], in series [1], the inhibition at 25 µM was found to be 18% and the inhibition at 100 µM was determined as 80%. In series [2], the concentration for half-maximal inhibition (IC50) is 11.8 µM.

Compound `O=C(NCc1ccc2c(Br)c(OC(Cc3ccccc3)C(=O)O)ccc2c1)c1ccc(C2CCCCC2)cc1` (stereo not shown) [Example 55] yielded an IC50 against human PAI-1 of 16.8 µM. In series [1], the inhibition at 25 µM was determined as 35% and the inhibition at 100 µM was determined as 60%. The half-inhibitory concentration (IC50) in series [2] came to 11.8 µM.

`CC(C)(C)c1cc(C(=O)NCc2ccc3c(Br)c(OC(Cc4ccccc4)C(=O)O)ccc3c2)cc(C(C)(C)C)c1` (stereo not shown) [Example 56, 2-{1-Bromo-6-[(3,5-di-tert-butyl-benzoylamino)-methyl]-naphthalen-2-yloxy}-3-phenyl-propionic acid] came in with a melting point of 160 to 163 °C. In series [1], the inhibition at 25 µM stood at 84% and the inhibition at 100 µM was 100%. Further, in series [2], the IC50 came to 1.9 µM.

In the case of `O=C(NCc1ccc2c(Br)c(OC(Cc3ccccc3)C(=O)O)ccc2c1)c1cccc(Oc2ccccc2)c1` (stereo not shown) [Example 57, 2-{1-Bromo-6-[(3-phenoxy-benzoylamino)-methyl]-naphthalen-2-yloxy}-3-phenyl-propionic acid], in series [1], the inhibition at 25 µM was 24% and the inhibition at 100 µM stood at 98%. Also, the IC50 in series [2] is 5.5 µM.

On to `O=C(O)COc1ccc2cc(CNC(=O)c3cc(-c4ccccc4Cl)oc3C(F)(F)F)ccc2c1` [Example 81, [6-({[5-(2-Chloro-phenyl)-2-trifluoromethyl-furan-3-carbonyl]-amino}-methyl)-naphthalen-2-yloxy]-acetic acid], for which, in series [1], the inhibition at 25 µM turned out to be 12% and the inhibition at 100 µM was found to be 78%. In addition, the 50% inhibitory concentration (IC50) in series [2] was determined as 36.5 µM.
